# Measurements: paper PMC9926234, “Iterative computational design and crystallographic screening identifies potent inhibitors targeting the Nsp3 macrodomain of SARS-CoV-2” (Proceedings of the National Academy of Sciences of the …, 2023)
# Read-outs that look alike come from different tables or passages of the source.
# Assays:
# [1] = biological target: T1, SARS-CoV-2 NSP3 Mac1 (Severe acute respiratory syndrome coronavirus 2, UniProt P0DTD1); assay type: binding; conditions: for Refined occupancy: ligand occupancy after refinement (phenix.refine)
# [2] = biological target: T1, SARS-CoV-2 NSP3 Mac1; assay type: binding; set-up: contains a conserved macrodomain enzyme (Mac1); conditions: for Spearman est (compound concentration vs apparent Tm): DSF dose responsiveness, 1 µM nsp3 mac1, adj p given
# Outline: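 ΔTma values are thermal shifts relative to a co-located DMSO-only control, read with 5 µM Fluorescent Yellow dye. Each compound was tested in triplicate over seven concentrations (two-fold steps, top 1,000 or 100 μM). Spearman correlation of concentration versus ΔTma tested whether the shift was dose-responsive.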
# [3] = PanDDA event map, 1 minus background density correction, crystal soaking of Mac1
# [4] = true hit = binding in crystallographic soaking or the HTRF-based binding assay
# [5] = PanDDA 1-BDC value of the event, crystal soak, compound concentration 100 mM, per dataset
# [6] = crystal soak, compound concentration 100 mM, per dataset
# [7] = ligand modeled from this dataset, compound concentration 100 mM
# [8] = PanDDA event map, 1-BDC of the hit dataset, crystal soak, compound concentration 100 mM
# [9] = overall hit flag: binding in crystallographic soaking or the HTRF-based binding assay
# [10] = maximal thermal upshift vs DMSO control
compound,measurement,setting,value
CC1(C(=O)O)CCN(C(=O)Cc2c[nH]c3nccc(Cl)c23)C1 (stereo not drawn) [FRESH00014134848],1-BDC,[1]; [3],0.11
same,Refined occupancy,[1]; crystal soaking of Mac1,22
same,HIT*,[1]; [4],Y
same,Spearman est (compound concentration vs apparent Tm),[2],0.41
same,DSF max dTma,[2]; maximal thermal upshift,0.07 ˚C
CNS(=O)(=O)c1cc(C(=O)N2CCc3nc(N)ncc3C2)co1 [FRESH00014649046],1-BDC,[1]; [5],0.07
same,1-BDC (PanDDA),[1]; [3],0.06
same,PanDDA hit?,[1]; [6],TRUE
same,Modeled?,[1]; [7],TRUE
same,Refined occupancy,[1]; crystal soaking of Mac1,12
same,HIT*,[1]; [4],Y
same,Spearman est (compound concentration vs apparent Tm),[2],0.3
same,DSF max dTma,[2]; maximal thermal upshift,0.29 ˚C
O=c1nc(N2CC(Cn3cnnc3)C3(CCC3)C2)cc(Cl)[nH]1 (stereo not drawn) [FRESH00020289192],1-BDC,[1]; [3],0.08
same,Refined occupancy,[1]; crystal soaking of Mac1,16
same,HIT*,[1]; [4],Y
same,Spearman est (compound concentration vs apparent Tm),[2],−0.17
same,DSF max dTma,[2]; maximal thermal upshift,0.04 ˚C
O=C(O)[C@@H]1CCCN(C(=O)c2ccnc3[nH]ccc23)C1 [REAL250000548538],1-BDC,[1]; [3],0.08
same,Modeled?,[1]; [7],TRUE
same,Refined occupancy,[1]; crystal soaking of Mac1,16
same,HIT*,[1]; [4],Y
same,Spearman est (compound concentration vs apparent Tm),[2],0.27
same,DSF max dTma,[2]; maximal thermal upshift,0.25 ˚C
O=C(c1cn[nH]c(=O)c1)N1CCC(CF)(C(=O)O)C1 (stereo not drawn) [REAL250001448407],1-BDC,[1]; [3],0.12
same,Refined occupancy,[1]; crystal soaking of Mac1,24
same,HIT*,[1]; [4],Y
same,Spearman est (compound concentration vs apparent Tm),[2],−0.24
same,DSF max dTma,[2]; maximal thermal upshift,0 ˚C
CN(CCCC(=O)O)C(=O)c1ncnc2[nH]ccc12 [REAL250002155324],1-BDC,[1]; [3],0.12
same,Refined occupancy,[1]; crystal soaking of Mac1,24
same,HIT*,[1]; [4],Y
same,Spearman est (compound concentration vs apparent Tm),[2],−0.27
same,DSF max dTma,[2]; maximal thermal upshift,0.12 ˚C
O=C(O)C[C@@H]1CCCN(c2ncnc3nc[nH]c23)C1 [REAL250002852032],1-BDC,[1]; [3],0.19
same,Refined occupancy,[1]; crystal soaking of Mac1,38
same,HIT*,[1]; [4],Y
same,Spearman est (compound concentration vs apparent Tm),[2],0.29
same,DSF max dTma,[2]; maximal thermal upshift,0.58 ˚C
Nc1ncnc(N2CCCC(CCC(=O)O)C2)c1Cl (stereo not drawn) [REAL250003296134],1-BDC,[1]; [5],0.09
same,1-BDC,[1]; [3],0.09
same,PanDDA hit?,[1]; [6],TRUE
same,Modeled?,"[1]; ligand modeled in the crystal structure, crystal soak, compound concentration 100 mM, per dataset",TRUE
same,Refined occupancy,[1]; crystal soaking of Mac1,18
same,HIT*,[1]; [4],Y
same,Spearman est (compound concentration vs apparent Tm),[2],0.65
same,DSF max dTma,[2]; maximal thermal upshift,0.34 ˚C
CN(CC(=O)O)C(=O)c1ccc2n[nH]c(=O)n2c1 [REAL250003774401],1-BDC,[1]; [3],0.16
same,Refined occupancy,[1]; crystal soaking of Mac1,32
same,HIT*,[1]; [4],Y
same,Spearman est (compound concentration vs apparent Tm),[2],−0.3
same,DSF max dTma,[2]; maximal thermal upshift,0 ˚C
CCc1c[nH]c2ncc(-c3c(C(=O)O)c(C)nn3C)cc12 [REAL250003958539],1-BDC,[1]; [8],0.2
same,1-BDC,[1]; [3],0.14
same,Refined occupancy,[1]; crystal soaking of Mac1,28
same,HIT*,[1]; [4],Y
same,Spearman est (compound concentration vs apparent Tm),[2],0.15
same,DSF max dTma,[2]; maximal thermal upshift,0.35 ˚C
CC1CC(C(=O)O)N1C(=O)c1cc(O)nc2ccc(F)cc12.O=C(O)C(F)(F)F (stereo not drawn) [REAL300007260658],1-BDC,[1]; [8],0.18
same,1-BDC,[1]; [3],0.11
same,Refined occupancy,[1]; crystal soaking of Mac1,22
same,HIT*,[1]; [4],Y
same,Spearman est (compound concentration vs apparent Tm),[2],−0.11
same,DSF max dTma,[2]; maximal thermal upshift,0.37 ˚C
CC1C(C(=O)O)CCCN1S(=O)(=O)c1c[nH]c2ncc(Cl)cc12 (stereo not drawn) [REAL300016493575],1-BDC (PanDDA),[1]; [3],0.09
same,Modeled?,[1]; [7],TRUE
same,Refined occupancy,[1]; crystal soaking of Mac1,18
same,HIT*,[1]; [4],Y
same,Spearman est (compound concentration vs apparent Tm),[2],−0.16
same,DSF max dTma,[2]; maximal thermal upshift,0.15 ˚C
O=C(Cc1ccc(-n2cccn2)cc1)OCC1CCCNC1=O (stereo not drawn) [Z5505],HIT*,[1]; [9],Y
same,DSF max dTma,[2]; [10],0.16 °C
c1csc(CC2CCN(c3ncnc4[nH]ccc34)C2)n1 (stereo not drawn) [Z6891],HIT*,[1]; [9],Y
same,DSF max dTma,[2]; [10],0.15 °C
Cc1oc(=O)oc1CSc1ncnc2[nH]cnc12 [Z7450],HIT*,[1]; [9],Y
same,DSF max dTma,[2]; [10],0.49 °C
OCc1cn(C2CCCN(c3ncnc4[nH]ccc34)C2)nn1 (stereo not drawn) [Z7864],HIT*,[1]; [9],Y
same,DSF max dTma,[2]; [10],0.32 °C
